# Results from paper PMC12707362, “Targeting Aurora Kinases as Essential Cell‐Cycle Regulators to Deliver Multi‐Stage Antimalarials Against Plasmodium Falciparum” (Angewandte Chemie (International Ed. in English), 2025).
# What was measured:
# [1] = system: recombinant PfArk3; assay: KinaseSeeker three-hybrid split-luciferase competitive binding assay, PfArk3; design: species or system Plasmodium falciparum; conditions: single point 1 µM
# Method: Supplementary Figure S3: (A) Single-point activity profile of selected inhibitors at 1 µM against recombinant PfArk-1 and PfArk-3 proteins, utilising a three-hybrid split-luciferase competitive binding assay (KinaseSeeker™).
# [2] = system: PfNF54 schizonts; assay: Stage-specific morphological evaluation, nuclei count per schizont; assay type: cell-based, Plasmodium falciparum; conditions: TAE684 3xIC50, hesperadin IC99; n = 30
# Method: Nuclei content was detected by consecutive staining with SYBR Green I (DNA fluorescence), detected in the FITC channel.
# To determine the stage specificity during asexual intra-erythrocytic development, P. falciparum NF54 parasites were synchronised using 5% D-Sorbitol to obtain a >90% ring-stage population (6–10 h post-invasion, hpi). […] The rate of activity and stage-specificity was monitored morphologically using Giemsa-stained thin smears. Asexual intra-erythrocytic stage parasites were treated at ring, early/late trophozoite, and schizont stages, sampling every 12 h over a 48-hour period. Images were captured using a Nikon Eclipse 50i light microscope adapted with a Nikon camera (Nikon DS-Fi1) and NIS-Elements software. […] Parasite progression was monitored every 12 h over a 48-h period using flow cytometry, as described in^[11]. The IC50 speed assay was conducted as described in^[12]. Briefly, unsynchronised P. falciparum NF54 asexual proliferation was determined using a SYBR Green I proliferation-based assay and expressed as IC50 values as described earlier. Four incubation times were employed for each inhibitor: 96 (standard assay time), 72, 48 and 24 h. IC50 values were obtained from corrected dose-response curves using Graph-Pad Prism v10.5.
# [3] = system: PfArk2 (PF3D7_0309200) cKD parasites; assay: Inhibitor susceptibility assay, PfArk2 conditional knockdown line; assay type: cell-based, Plasmodium falciparum; conditions: cKD versus control
# Method: Compound susceptibility assays using P. falciparum Ark1 and Ark2 cKD lines were carried out as previously described^[13]. Ark1 (PF3D7_0605300) and Ark2 (PF3D7_0309200) cKD lines generated by fusing the coding sequence and non-coding RNA aptamer sequences in the 5’- and 3’-UTR, permitting translation regulation using the TetR-DOZI system^[14]. Editing was achieved by CRISPR/SpCas9 using the linear pSN054 vector that contains cloning sites for the left homology region (LHR) and the right homology region (RHR), as well as a gene-specific guide RNA under control of the T7 promoter^[15]. The final constructs were sequence-verified and further confirmed by restriction digests. Transfection into Cas9- and T7 RNA polymerase-expressing NF54 parasites was carried out by pre-loading erythrocytes with the donor vector as previously described^[16]. Parasite culture was maintained continuously in 500 nM anhydrotetracycline (aTc, Sigma-Aldrich 37919) and drug selection with 2.5 μg/mL of Blasticidin S (RPI Corp B12150-0.1) was initiated four days after transfection. Briefly, synchronous ring-stage Ark1 (PF3D7_0605300) and Ark2 (PF3D7_0309200) cKD parasites, as well as a control parasite line expressing an aptamer-regulatable fluorescent protein, were maintained in the presence of high aTc (500 nM) or no aTc and distributed into 384-well polystyrene microplates (Corning). […]
SMILES,inhibition of PfArk3 [1],number of daughter merozoites per schizont [2],change in IC50 in PfArk2 cKD [3]
"CCN1CCN(C(=O)Cc2ccc(Nc3ncc(F)c(Nc4ccc(C(=O)Nc5ccccc5Cl)cc4)n3)cc2)CC1 [AAi I, Aurora A Inhibitor I]",40%,–,–
"COc1cc(N2CCC(N3CCN(C)CC3)CC2)ccc1Nc1ncc(Cl)c(Nc2ccccc2S(=O)(=O)C(C)C)n1 [TAE684, NVP-TAE684]",–,significant reduction in the number of daughter merozoites,no change in the IC50 value
